Laboratory results as given in patent publication US10966968B2 (Amarin Pharmaceuticals Ireland Limited, priority 2013, dated 2021).
Each block holds one compound with its values, some of them ahead of it.

Experiments:
[1] = Safety evaluation in the drug-drug interaction study (adverse events, laboratory, vital signs); format: in vivo, human; details: rosiglitazone 8 mg with ethyl eicosapentaenoate 4 g/day, healthy subjects
Description: Safety evaluations consisted of monitoring adverse events (AEs), clinical laboratory measurements (chemistry, hematology, and urinalysis), vital signs (systolic and diastolic blood pressure, heart rate, respiratory rate and oral body temperature), and physical examination findings.

[2] = target: T1, CYP2C8 (Homo sapiens, UniProt P10632); assay: Effect of ethyl eicosapentaenoate on metabolism/exposure of rosiglitazone (CYP2C8 substrate) in the drug-drug interaction study; format: in vivo; details: at steady state, 4 g/day, healthy subjects
T1 construct: from tissue; host or cells: living healthy human subjects (in vivo; endogenous enzyme)
T1 sequence (P10632 1-490): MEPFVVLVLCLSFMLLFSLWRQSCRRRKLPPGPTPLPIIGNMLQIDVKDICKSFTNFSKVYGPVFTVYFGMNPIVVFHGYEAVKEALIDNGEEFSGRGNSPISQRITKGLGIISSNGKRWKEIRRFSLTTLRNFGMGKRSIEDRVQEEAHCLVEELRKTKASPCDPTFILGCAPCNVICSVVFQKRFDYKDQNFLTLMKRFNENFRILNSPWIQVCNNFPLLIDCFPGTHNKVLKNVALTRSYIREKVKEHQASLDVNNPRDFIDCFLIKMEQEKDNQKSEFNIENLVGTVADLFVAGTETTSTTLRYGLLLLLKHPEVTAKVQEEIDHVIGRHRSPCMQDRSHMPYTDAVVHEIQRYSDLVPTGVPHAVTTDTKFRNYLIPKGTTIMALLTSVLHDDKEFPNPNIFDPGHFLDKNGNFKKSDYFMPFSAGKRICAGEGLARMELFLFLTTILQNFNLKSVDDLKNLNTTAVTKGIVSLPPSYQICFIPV
Description: Nonparametric statistics included median and data range (minimum-maximum).

[3] = independent of dose; cited from earlier work
[4] = Phase 1 open-label crossover drug-drug interaction study: rosiglitazone plasma pharmacokinetics without and with ethyl eicosapentaenoate
[5] = both, human, plasma, oral, 8 mg

exposure changes of rosiglitazone when administered concomitantly [2]: no clinically relevant exposure changes
inhibition of the metabolism of rosiglitazone [2]: does not inhibit
Compound: CC/C=C\C/C=C\C/C=C\C/C=C\C/C=C\CCCC(=O)OCC [ethyl eicosapentaenoate, all-cis eicosa-5,8,11,14,17-pentaenoic acid ethyl ester]
safety and tolerability of concomitant administration [1]: safe and well-tolerated
serious adverse events [1]: No serious adverse events

Tmax ([4]; both, human, plasma, oral): 0.8 h
half-life ([4]; both, human, plasma, oral): 4.1 h
AUC(0-t) [4, 5]: 3150 ng·h/mL
Tmax [4, 5]: 0.8 h
half-life [4, 5]: 4.4 h
Cmax ([4]; both, human, plasma, oral, 8 mg, Cmax, rosiglitazone 8 mg alone, mean (SD)): 672 ng/mL
AUC(0-inf) ([4]; both, human, plasma, oral, 8 mg, LSGM AUC0-inf, rosiglitazone alone, least squares geometric mean from mixed models): 3150 ng·h/mL
Cmax ([4]; both, human, plasma, oral, 8 mg, LSGM Cmax, rosiglitazone alone, least squares geometric mean from mixed models): 647 ng/mL
AUC(0-inf) ([4]; both, human, plasma, oral, AUC0-inf, rosiglitazone 8 mg with EPA 4 g (day 29), healthy subjects, plasma, mean (SD)): 2920 ng·h/mL
Cmax ([4]; both, human, plasma, oral, Cmax, rosiglitazone 8 mg with EPA 4 g, mean (SD)): 673 ng/mL
AUC(0-inf) ([4]; both, human, plasma, oral, LSGM AUC0-inf, rosiglitazone + EPA, least squares geometric mean from mixed models): 2840 ng·h/mL
Cmax ([4]; both, human, plasma, oral, LSGM Cmax, rosiglitazone + EPA, least squares geometric mean from mixed models): 650 ng/mL
AUC(0-inf) ([4]; both, human, plasma, po, 8 mg, AUC0-inf, rosiglitazone 8 mg single oral dose alone (day 11), healthy subjects, plasma, mean (SD)): 3230 ng·h/mL
Kel ([4]; rosiglitazone 8 mg alone, mean (SD)): 0.16 (0.02) 1/h
Kel ([4]; rosiglitazone 8 mg with EPA 4 g, mean (SD)): 0.17 (0.03) 1/h
difference in AUC0-inf and Cmax, alone compared to co-administration with ethyl eicosapentaenoate ([4]; rosiglitazone 8 mg, ethyl eicosapentaenoate 4 g/day): no significant difference
Compound: CN(CCOc1ccc(CC2SC(=O)NC2=O)cc1)c1ccccn1 (centres unmarked) [Rosiglitazone, rosiglitazone]
safety and tolerability of concomitant administration [1]: safe and well-tolerated
serious adverse events [1]: No serious adverse events
elimination half-life [3]: 3 to 4 h
